Values joined by “and” are separate entries in the source; they are usually repeats but may differ in a detail not shown here. Equal values may be shown once. Read-outs that look alike come from different tables or passages of the source.
Experiments:
Vd-RDL2 GABAr = biological target: T1, Vd-RDL2 GABAr (Varroa destructor, UniProt A0A3G3MDS2); assay: Two-electrode voltage-clamp of GABA-induced currents, Vd-RDL2 expressed in Xenopus laevis oocytes; assay type: cell-based; conditions: IC50 (inhibition of the GABA response), GABA 100 µM, inhibitor co-applied
T1 sequence (A0A3G3MDS2 20-661): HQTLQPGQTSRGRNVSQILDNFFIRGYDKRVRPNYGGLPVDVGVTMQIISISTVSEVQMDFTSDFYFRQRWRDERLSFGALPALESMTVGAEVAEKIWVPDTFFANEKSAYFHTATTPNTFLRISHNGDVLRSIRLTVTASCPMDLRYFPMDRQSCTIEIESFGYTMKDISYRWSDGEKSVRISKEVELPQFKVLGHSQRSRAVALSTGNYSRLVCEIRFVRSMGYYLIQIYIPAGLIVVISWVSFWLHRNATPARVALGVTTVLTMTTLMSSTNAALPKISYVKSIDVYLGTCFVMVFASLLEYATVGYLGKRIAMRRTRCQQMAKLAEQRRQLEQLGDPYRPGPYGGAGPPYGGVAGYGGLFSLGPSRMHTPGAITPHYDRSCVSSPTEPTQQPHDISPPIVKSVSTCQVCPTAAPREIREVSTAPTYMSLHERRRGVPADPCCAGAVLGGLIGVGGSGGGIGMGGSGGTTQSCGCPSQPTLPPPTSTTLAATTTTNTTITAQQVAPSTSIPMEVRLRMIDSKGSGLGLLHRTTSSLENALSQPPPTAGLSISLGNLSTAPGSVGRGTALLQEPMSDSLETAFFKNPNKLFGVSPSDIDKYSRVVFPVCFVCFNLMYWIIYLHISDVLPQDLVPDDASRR
Experimental: (§1) cRNAs were in vitro synthesized from linearized plasmids using the M-message M-machine transcription kit (Thermo Fisher, Waltham, MA USA) following the manufacturer’s instructions. The cRNA concentration was adjusted to 1 µg/µL. Preparation and injection of X. laevis oocytes were completed as previously described. The oocytes were injected with 30 nL of a solution containing the cRNA of interest. Injected oocytes were maintained at 19 °C in a survival solution containing (in mM): NaCl, 96; KCl, 2; CaCl2, 1.8; MgCl2, 1; Hepes, 5; Na-pyruvate, 2.5; and gentamycin, 0.025, pH = 7.2 with NaOH, renewed daily.
(§2) Expressed currents were recorded at room temperature using the two-electrode voltage-clamp method 1–3 days after injection. Electrodes were pulled from borosilicate glass (Warner, ref GC150T10) and filled with 3 M KCl. […] Drugs were applied using a gravity-driven perfusion system at a speed of 2 mL/min.
(§3) Oocytes were perfused with the following ND solution (in mM): NaCl, 96; KCl, 3; CaCl2, 0.5; MgCl2, 1; HEPES, 5, with pH set at 7.4 with NaOH at ~1 mL/min. The reversal potential of the Ap-RDL receptor was measured in solutions containing (in mM): NaCl, Na-acetate or TEACl (tetraethylammonium chloride), 100; HEPES, 5 with pH set at 7.4, with NaOH or TEAOH. […] Fipronil or picrotoxin were dissolved at the final concentrations from stock solutions in DMSO (dimethylsulfoxide) at 200 and 10 mM, respectively. The final DMSO concentration was always less than 0.2%.
(§4) With Rel.Cur. the current amplitude at each concentration relative to the current recorded in the absence of antagonist; IC50, the concentration for half-maximum inhibition, log ([Inhib]) the logarithm of the inhibitor concentration, and p a slope factor.
(§5) With t, the time of the recording; Rel.Cur., the current amplitude at each concentration relative to the current recorded in the absence of antagonist; Amp, the amplitude of the exponential, Tau Block, the time constant of the exponential, and R the residual non-inhibited current at the steady-state of the effects. The relative block (Rel.B) is estimated as 1-R expressed in %.

A. pisum RDL1bd = conditions: text prints the receptor as Ap-RDL1; read-out: IC50 for fipronil; cited from earlier work
[1] = biological target: T2, Hs-α2β2γ2 GABA-A receptor (Homo sapiens, UniProt P18507+P47869+P47870); assay: cell-based; assay type: cell-based; conditions: IC50 (inhibition of the GABA response), GABA 100 µM, inhibitor co-applied
T2 construct: expressed in transfected cells; host or cells: Xenopus laevis oocytes (cRNA injection)
T2 sequence (P47869 29-451): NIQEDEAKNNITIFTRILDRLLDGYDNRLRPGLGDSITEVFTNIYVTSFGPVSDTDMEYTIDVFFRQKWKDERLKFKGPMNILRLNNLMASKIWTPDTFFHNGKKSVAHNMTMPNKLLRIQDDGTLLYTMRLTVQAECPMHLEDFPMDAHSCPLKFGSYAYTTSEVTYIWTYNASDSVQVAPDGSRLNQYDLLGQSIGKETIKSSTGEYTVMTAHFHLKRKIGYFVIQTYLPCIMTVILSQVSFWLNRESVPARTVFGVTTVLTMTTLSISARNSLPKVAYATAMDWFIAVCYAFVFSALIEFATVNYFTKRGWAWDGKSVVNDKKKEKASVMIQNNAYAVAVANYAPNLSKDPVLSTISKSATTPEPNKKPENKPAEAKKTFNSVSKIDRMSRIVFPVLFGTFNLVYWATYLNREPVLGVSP
T2 sequence (P47870 25-512 limits assumed): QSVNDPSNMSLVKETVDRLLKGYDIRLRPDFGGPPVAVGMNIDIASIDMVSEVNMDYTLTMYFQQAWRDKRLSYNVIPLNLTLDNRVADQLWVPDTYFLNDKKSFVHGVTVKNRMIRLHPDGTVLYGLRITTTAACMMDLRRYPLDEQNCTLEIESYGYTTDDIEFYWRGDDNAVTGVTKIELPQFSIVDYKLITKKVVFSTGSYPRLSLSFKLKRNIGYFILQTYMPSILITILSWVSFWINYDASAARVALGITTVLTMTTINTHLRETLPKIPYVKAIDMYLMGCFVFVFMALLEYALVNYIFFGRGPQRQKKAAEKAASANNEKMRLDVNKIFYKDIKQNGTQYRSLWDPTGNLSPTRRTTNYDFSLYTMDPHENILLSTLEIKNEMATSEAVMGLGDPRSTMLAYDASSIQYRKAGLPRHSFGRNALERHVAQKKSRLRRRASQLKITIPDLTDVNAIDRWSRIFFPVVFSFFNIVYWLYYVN
T2 sequence (P18507 40-475): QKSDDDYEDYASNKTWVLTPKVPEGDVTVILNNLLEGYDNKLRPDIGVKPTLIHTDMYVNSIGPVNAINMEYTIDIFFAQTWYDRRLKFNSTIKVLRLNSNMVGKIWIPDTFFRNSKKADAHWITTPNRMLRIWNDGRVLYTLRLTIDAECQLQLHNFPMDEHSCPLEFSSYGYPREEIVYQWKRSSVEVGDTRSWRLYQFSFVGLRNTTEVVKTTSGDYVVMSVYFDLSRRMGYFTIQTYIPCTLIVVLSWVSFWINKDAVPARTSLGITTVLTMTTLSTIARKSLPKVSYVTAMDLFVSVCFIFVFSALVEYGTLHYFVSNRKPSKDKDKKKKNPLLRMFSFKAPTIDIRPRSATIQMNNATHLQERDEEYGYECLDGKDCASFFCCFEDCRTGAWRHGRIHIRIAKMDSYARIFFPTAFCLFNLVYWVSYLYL
Experimental: as §1, §2, §3, §4, §5

Vd-RDL1 GABAr = biological target: T3, Vd-RDL1 GABAr (Varroa destructor, UniProt A0A343W7T5); assay: Two-electrode voltage-clamp of GABA-induced currents, Vd-RDL1 expressed in Xenopus laevis oocytes; assay type: cell-based
T3 sequence (A0A343W7T5 35-585): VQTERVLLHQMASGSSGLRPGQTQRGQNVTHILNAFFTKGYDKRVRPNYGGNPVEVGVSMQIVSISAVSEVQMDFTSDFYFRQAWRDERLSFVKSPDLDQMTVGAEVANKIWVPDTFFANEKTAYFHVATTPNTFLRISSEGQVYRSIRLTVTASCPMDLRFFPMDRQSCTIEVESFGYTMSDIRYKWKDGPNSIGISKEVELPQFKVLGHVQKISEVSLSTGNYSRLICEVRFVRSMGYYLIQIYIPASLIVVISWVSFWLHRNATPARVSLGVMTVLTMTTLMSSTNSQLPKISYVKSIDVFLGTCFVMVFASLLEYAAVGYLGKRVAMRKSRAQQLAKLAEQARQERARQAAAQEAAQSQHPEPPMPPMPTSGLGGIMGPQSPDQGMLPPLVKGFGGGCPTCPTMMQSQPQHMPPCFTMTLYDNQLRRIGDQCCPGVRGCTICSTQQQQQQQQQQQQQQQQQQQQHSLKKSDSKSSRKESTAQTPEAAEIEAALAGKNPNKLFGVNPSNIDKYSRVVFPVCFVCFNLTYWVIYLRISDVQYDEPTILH
Experimental: as §1, §2, §3, §4, §5

Vd-RDL3 GABAr = biological target: T4, Vd-RDL3 GABAr (Varroa destructor, UniProt A0A343W7T7); assay: Two-electrode voltage-clamp of GABA-induced currents, Vd-RDL3 expressed in Xenopus laevis oocytes; assay type: cell-based
T4 sequence (A0A343W7T7 31-591): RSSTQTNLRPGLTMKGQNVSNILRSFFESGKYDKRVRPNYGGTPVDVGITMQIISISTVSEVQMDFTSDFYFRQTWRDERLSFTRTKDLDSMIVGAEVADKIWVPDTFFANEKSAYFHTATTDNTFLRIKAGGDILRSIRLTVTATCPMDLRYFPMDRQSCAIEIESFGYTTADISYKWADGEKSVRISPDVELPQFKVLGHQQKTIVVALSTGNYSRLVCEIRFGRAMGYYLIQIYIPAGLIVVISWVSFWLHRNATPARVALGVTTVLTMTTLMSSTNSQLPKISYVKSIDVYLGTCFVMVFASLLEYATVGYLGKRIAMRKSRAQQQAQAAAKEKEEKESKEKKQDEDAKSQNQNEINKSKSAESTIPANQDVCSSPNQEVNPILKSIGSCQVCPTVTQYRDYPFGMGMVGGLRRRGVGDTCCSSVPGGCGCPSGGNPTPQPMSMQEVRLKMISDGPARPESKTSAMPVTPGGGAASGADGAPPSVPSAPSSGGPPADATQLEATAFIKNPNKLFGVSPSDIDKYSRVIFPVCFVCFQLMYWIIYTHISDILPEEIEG
Experimental: as §1, §2, §3, §4, §5

A. pisum RDL2b = conditions: text prints the receptor as Ap-RDL2; read-out: IC50 for fipronil; cited from earlier work
A. pisum RDL1ad = conditions: read-out: IC50 for fipronil; cited from earlier work
Hs-α1β2γ2 = conditions: read-out: IC50 for fipronil; cited from earlier work
Am-RDL GABAr = biological target: T5, Am-RDL GABAr (Apis mellifera, UniProt A0A8U0Y4W2); assay: Two-electrode voltage-clamp of GABA-induced currents, Am-RDL expressed in Xenopus laevis oocytes; assay type: cell-based
T5 sequence (A0A8U0Y4W2 19-476): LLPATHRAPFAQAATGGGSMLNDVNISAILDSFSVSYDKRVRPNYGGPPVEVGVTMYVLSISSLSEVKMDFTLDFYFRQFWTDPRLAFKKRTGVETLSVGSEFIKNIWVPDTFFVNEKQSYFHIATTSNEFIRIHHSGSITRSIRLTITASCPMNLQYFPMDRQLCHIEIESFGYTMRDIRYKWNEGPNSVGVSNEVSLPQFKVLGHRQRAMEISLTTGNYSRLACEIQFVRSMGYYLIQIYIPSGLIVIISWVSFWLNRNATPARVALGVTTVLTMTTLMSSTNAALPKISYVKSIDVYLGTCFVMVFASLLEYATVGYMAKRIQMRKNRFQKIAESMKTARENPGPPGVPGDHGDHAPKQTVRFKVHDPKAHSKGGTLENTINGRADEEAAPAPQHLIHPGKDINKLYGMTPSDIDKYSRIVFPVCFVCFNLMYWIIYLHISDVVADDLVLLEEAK
Experimental: as §1, §2, §3, §4, §5

Ap-RDL1 GABAr = biological target: T6, Ap-RDL1 GABAr (Acyrthosiphon pisum, UniProt A0A385J708, C18R); assay: Two-electrode voltage-clamp of GABA-induced currents, Ap-RDL1 expressed in Xenopus laevis oocytes; assay type: cell-based; conditions: IC50 (inhibition of the GABA response), GABA 100 µM, inhibitor co-applied
T6 sequence (A0A385J708 33-567 C18R): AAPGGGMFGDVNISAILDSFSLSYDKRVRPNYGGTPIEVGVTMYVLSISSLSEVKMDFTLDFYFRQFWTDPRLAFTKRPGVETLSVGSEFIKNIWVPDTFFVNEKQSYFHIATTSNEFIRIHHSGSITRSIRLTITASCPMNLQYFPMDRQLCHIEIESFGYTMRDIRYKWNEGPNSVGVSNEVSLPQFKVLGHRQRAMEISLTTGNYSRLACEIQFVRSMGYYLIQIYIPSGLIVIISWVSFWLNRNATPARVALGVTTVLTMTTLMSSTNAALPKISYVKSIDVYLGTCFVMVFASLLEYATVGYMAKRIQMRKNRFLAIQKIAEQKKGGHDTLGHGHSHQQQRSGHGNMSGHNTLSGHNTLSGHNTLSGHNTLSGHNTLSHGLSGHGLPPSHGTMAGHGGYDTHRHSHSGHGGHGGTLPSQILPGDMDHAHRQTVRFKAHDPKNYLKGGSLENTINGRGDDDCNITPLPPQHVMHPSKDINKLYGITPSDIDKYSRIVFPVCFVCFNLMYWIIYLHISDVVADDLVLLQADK
Experimental: as §1, §2, §3, §4, §5

For `N#Cc1nn(-c2c(Cl)cc(C(F)(F)F)cc2Cl)c(N)c1[S+]([O-])C(F)(F)F` (centres unmarked) [fipronil], the IC50 (Vd-RDL2 GABAr) is listed as 770 nM and 300 to 3000 nM, the IC50 (A. pisum RDL1bd) is listed as 180 ± 100 nM and the IC50 [1] is listed as 1880 nM and 300 to 3000 nM and 1800 nM. For the same molecule, the IC50 (Vd-RDL1 GABAr) was > 500 µM, the “block of GABA response by fipronil” value (Vd-RDL1 GABAr; fipronil 30 µM, GABA 100 µM) was “almost no block” and the IC50 (Vd-RDL3 GABAr) was 3.64 ± 1.74 µM. For the same molecule, the IC50 (A. pisum RDL2b) was 720 ± 200 nM, the IC50 (A. pisum RDL1ad) was 640 ± 150 nM and the IC50 (Hs-α1β2γ2) was 1100 ± 200 nM. For the same molecule, the IC50 (Am-RDL GABAr) was 70 ± 200 nM and the IC50 (Ap-RDL1 GABAr) was 310 nM and 300 to 3000 nM.
In the case of picrotoxin, the sensitivity to picrotoxin (Vd-RDL1 GABAr; GABA 100 µM) is reported as “insensitive”, the “block of GABA response by picrotoxin” value (Vd-RDL1 GABAr; picrotoxin 100 µM, GABA 100 µM) is reported as 20% and the IC50 (Vd-RDL1 GABAr; read-out: IC50 (inhibition of the GABA response), GABA 100 µM, inhibitor co-applied) is reported as > 500 µM.

— paper PMC9146934 (Membranes, 2022)
